Paper PMC11428279, “Exploring Structure–Activity Relationships and Modes of Action of Laterocidine” (ACS Central Science, 2024)
Where two headings read alike, the source gives them in different places. Bridge positions count the residues as written; N and C are the ends. Square brackets hold non-standard residues; d marks the D form. Peptide text beside a SMILES is read from it. * marks the point of attachment. dOrn = NCCC[C@@H](N)C(=O)O; Nonanoyl = CCCCCCCCC(=O)*; X2 = O=C(c1ccc(Cl)cc1Cl)*; Orn = NCCC[C@H](N)C(=O)O

Columns and labels:
Assay type in all cases: cell-based
A. baumannii = settings: for fold increase in MIC (loss of activity) against A. baumannii: compared with native laterocidine
Protocol: (§1) MICs for laterocidine and its various analogues were determined by broth microdilution[49] for the following polymyxin-susceptible ATCC and clinical isolates: P. aeruginosa FADDI-PA022, FADDI-PA001, FADDI-PA025, FADDI-PA070, FADDI-PA060; A. baumannii FADDI-AB134, FADDI-AB034, FADDI-AB030, FADDI-AB174, FADDI-AB241; K. pneumoniae FADDI-KP032, FADDI-KP022, BM1, FADDI-KP065, FADDI-KP064, FADDI-KP003; and E. cloacae FADDI-EC001, FADDI-EC003, and FADDI-EC006. Experiments were performed with cation-adjusted Mueller–Hinton broth (CAMHB) in 96-well polystyrene microtiter plates. Wells were inoculated with 100 μL of bacterial suspension prepared in CAMHB (containing ∼10^6 CFU/mL) and 100 μL of CAMHB containing increasing concentrations of polymyxins (0–32 μg/mL). MIC measurements were performed in duplicate, with the MIC being the lowest concentration at which visible growth was inhibited following 18–20 h of incubation at 37 °C. Bacterial killing kinetics was investigated over 24 h as described previously.[50]

P. aeruginosa = settings: compared with native laterocidine
Protocol: as §1

[1] = system: Gram-negative strains of P. aeruginosa, A. baumannii, K. pneumoniae, and E. cloacae
Protocol: as §1

E. cloacae = settings: compared with native laterocidine
Protocol: as §1

K. pneumoniae = system: K. pneumoniae
Protocol: as §1

[2] = compared with native laterocidine

CC[C@H](C)[C@@H]1NC(=O)[C@@H](NC(=O)[C@H](Cc2c[nH]c3ccccc23)NC(=O)[C@@H](CCCN)NC(=O)CNC(=O)[C@H](CCCN)NC(=O)[C@@H](CCCN)NC(=O)[C@@H](Cc2c[nH]c3ccccc23)NC(=O)[C@@H](Cc2ccc(O)cc2)NC(=O)[C@@H](CO)NC(=O)c2ccc(Cl)cc2Cl)[C@@H](C)OC(=O)CNC(=O)CNC(=O)[C@H](CC(N)=O)NC1=O [Peptide 12] (X2-[dS][dY][dW][dOrn][Orn]G[dOrn]WTINGG; ester 9-C)
fold increase in MIC (loss of activity) against A. baumannii (A. baumannii): 4–8 fold

CCCCCCCCC(=O)N[C@H](CO)C(=O)N[C@H](Cc1ccc(O)cc1)C(=O)N[C@H](Cc1c[nH]c2ccccc12)C(=O)N[C@H](CCCN)C(=O)N[C@@H](CCCN)C(=O)NCC(=O)N[C@H](CCCN)C(=O)N[C@@H](Cc1c[nH]c2ccccc12)C(=O)N[C@H]1COC(=O)CNC(=O)CNC(=O)[C@H](CC(N)=O)NC(=O)[C@H]([C@@H](C)CC)NC1=O [Peptide 15] (Nonanoyl-[dS][dY][dW][dOrn][Orn]G[dOrn]WSINGG; ester 9-C)
MICs against A. baumannii (range over strains) (A. baumannii): 8 to 32 µg/mL | fold increase in MIC (loss of activity) against A. baumannii (A. baumannii): 2–8 fold | fold less activity against the two MDR strains of P. aeruginosa (P. aeruginosa): 8–16 fold

CCCCCCCCC(=O)N[C@H](CO)C(=O)N[C@H](Cc1ccc(O)cc1)C(=O)N[C@H](Cc1c[nH]c2ccccc12)C(=O)N[C@H](CCCN)C(=O)N[C@@H](CCCN)C(=O)NCC(=O)N[C@H](CCCN)C(=O)N[C@@H](Cc1c[nH]c2ccccc12)C(=O)N[C@H](C(=O)N[C@H](C(=O)N[C@@H](CC(N)=O)C(=O)NCC(N)=O)[C@@H](C)CC)[C@@H](C)O [Peptide 21] (Nonanoyl-[dS][dY][dW][dOrn][Orn]G[dOrn]WTING-NH2)
fold increase in MIC against P. aeruginosa, K. pneumoniae, and E. cloacae [1, 2]: 1–2 fold

CCCCCCCCC(=O)N[C@H](CO)C(=O)N[C@H](Cc1ccc(O)cc1)C(=O)N[C@H](Cc1c[nH]c2ccccc12)C(=O)N[C@H](CCCN)C(=O)N[C@@H](CCCN)C(=O)NCC(=O)N[C@H](CCCN)C(=O)N[C@@H](Cc1c[nH]c2ccccc12)C(=O)N[C@@H]1C(=O)N[C@@H]([C@@H](C)CC)C(=O)N[C@@H](CC(N)=O)C(=O)NCC(=O)N[C@@H](C)C(=O)O[C@@H]1C [Peptide 24] (Nonanoyl-[dS][dY][dW][dOrn][Orn]G[dOrn]WTINGA; ester 9-C)
fold increase in MIC for two E. cloacae strains (E. cloacae): 2 fold | fold increase in MIC (loss of activity) against all strains / all species [1, 2]: no more than 1 fold

CCCCCCCCC(=O)N[C@H](CO)C(=O)N[C@H](Cc1ccc(O)cc1)C(=O)N[C@H](Cc1c[nH]c2ccccc12)C(=O)N[C@H](CCCN)C(=O)N[C@@H](CCCN)C(=O)NCC(=O)N[C@H](CCCN)C(=O)N[C@@H](Cc1c[nH]c2ccccc12)C(=O)N[C@@H]1C(=O)N[C@@H]([C@@H](C)CC)C(=O)N[C@@H](CC(N)=O)C(=O)N[C@@H](C)C(=O)NCC(=O)O[C@@H]1C [Peptide 25] (Nonanoyl-[dS][dY][dW][dOrn][Orn]G[dOrn]WTINAG; ester 9-C)
MICs against P. aeruginosa and A. baumannii (range) [1]: 2 to 16 µg/mL | fold increase in MIC (loss of activity) against all strains / all species [1, 2]: no more than 1 fold

CCCCCCCCC(=O)N[C@H](CO)C(=O)N[C@H](Cc1ccc(O)cc1)C(=O)N[C@H](Cc1c[nH]c2ccccc12)C(=O)N[C@H](CCCN)C(=O)N[C@@H](CCCN)C(=O)NCC(=O)N[C@H](CCCN)C(=O)N[C@@H](Cc1c[nH]c2ccccc12)C(=O)N[C@@H]1C(=O)N[C@@H]([C@@H](C)CC)C(=O)N[C@@H](C)C(=O)NCC(=O)NCC(=O)O[C@@H]1C [Peptide 26] (Nonanoyl-[dS][dY][dW][dOrn][Orn]G[dOrn]WTIAGG; ester 9-C)
MICs against P. aeruginosa and A. baumannii (range) [1]: 2 to 16 µg/mL | fold increase in MIC (loss of activity) against all strains / all species [1, 2]: no more than 1 fold

CCCCCCCCC(=O)N[C@H](CO)C(=O)N[C@H](Cc1ccc(O)cc1)C(=O)N[C@H](Cc1c[nH]c2ccccc12)C(=O)N[C@H](CCCN)C(=O)N[C@@H](CCCN)C(=O)NCC(=O)N[C@H](C)C(=O)N[C@@H](Cc1c[nH]c2ccccc12)C(=O)N[C@@H]1C(=O)N[C@@H]([C@@H](C)CC)C(=O)N[C@@H](CC(N)=O)C(=O)NCC(=O)NCC(=O)O[C@@H]1C [Peptide 29] (Nonanoyl-[dS][dY][dW][dOrn][Orn]G[dA]WTINGG; ester 9-C)
fold increase in MIC (loss of activity) against all strains / all species [1, 2]: 2–4 fold

CCCCCCCCC(=O)N[C@H](CO)C(=O)N[C@H](Cc1ccc(O)cc1)C(=O)N[C@H](Cc1c[nH]c2ccccc12)C(=O)N[C@H](CCCN)C(=O)N[C@@H](C)C(=O)NCC(=O)N[C@H](CCCN)C(=O)N[C@@H](Cc1c[nH]c2ccccc12)C(=O)N[C@@H]1C(=O)N[C@@H]([C@@H](C)CC)C(=O)N[C@@H](CC(N)=O)C(=O)NCC(=O)NCC(=O)O[C@@H]1C [Peptide 31] (Nonanoyl-[dS][dY][dW][dOrn]AG[dOrn]WTINGG; ester 9-C)
fold increase in MIC (loss of activity) against all strains / all species [1, 2]: 2–8 fold

CCCCCCCCC(=O)N[C@H](CO)C(=O)N[C@H](Cc1ccc(O)cc1)C(=O)N[C@H](Cc1c[nH]c2ccccc12)C(=O)N[C@H](C)C(=O)N[C@@H](CCCN)C(=O)NCC(=O)N[C@H](CCCN)C(=O)N[C@@H](Cc1c[nH]c2ccccc12)C(=O)N[C@@H]1C(=O)N[C@@H]([C@@H](C)CC)C(=O)N[C@@H](CC(N)=O)C(=O)NCC(=O)NCC(=O)O[C@@H]1C [Peptide 32] (Nonanoyl-[dS][dY][dW][dA][Orn]G[dOrn]WTINGG; ester 9-C)
fold increase in MIC (loss of activity) against all strains / all species [1, 2]: 2–8 fold

CCCCCCCCC(=O)N[C@H](CO)C(=O)N[C@H](Cc1ccc(O)cc1)C(=O)N[C@H](C)C(=O)N[C@H](CCCN)C(=O)N[C@@H](CCCN)C(=O)NCC(=O)N[C@H](CCCN)C(=O)N[C@@H](Cc1c[nH]c2ccccc12)C(=O)N[C@@H]1C(=O)N[C@@H]([C@@H](C)CC)C(=O)N[C@@H](CC(N)=O)C(=O)NCC(=O)NCC(=O)O[C@@H]1C [Peptide 33] (Nonanoyl-[dS][dY][dA][dOrn][Orn]G[dOrn]WTINGG; ester 9-C)
MICs against A. baumannii (range over strains) (A. baumannii; summary of Tables 1 and 2): > 32 µg/mL

CCCCCCCCC(=O)N[C@H](CO)C(=O)N[C@H](C)C(=O)N[C@H](Cc1c[nH]c2ccccc12)C(=O)N[C@H](CCCN)C(=O)N[C@@H](CCCN)C(=O)NCC(=O)N[C@H](CCCN)C(=O)N[C@@H](Cc1c[nH]c2ccccc12)C(=O)N[C@@H]1C(=O)N[C@@H]([C@@H](C)CC)C(=O)N[C@@H](CC(N)=O)C(=O)NCC(=O)NCC(=O)O[C@@H]1C [Peptide 34] (Nonanoyl-[dS][dA][dW][dOrn][Orn]G[dOrn]WTINGG; ester 9-C)
MICs against A. baumannii (range over strains) (A. baumannii): ≥ 32 µg/mL

CCCCCCCCC(=O)N[C@H](C)C(=O)N[C@H](Cc1ccc(O)cc1)C(=O)N[C@H](Cc1c[nH]c2ccccc12)C(=O)N[C@H](CCCN)C(=O)N[C@@H](CCCN)C(=O)NCC(=O)N[C@H](CCCN)C(=O)N[C@@H](Cc1c[nH]c2ccccc12)C(=O)N[C@@H]1C(=O)N[C@@H]([C@@H](C)CC)C(=O)N[C@@H](CC(N)=O)C(=O)NCC(=O)NCC(=O)O[C@@H]1C [Peptide 35] (Nonanoyl-[dA][dY][dW][dOrn][Orn]G[dOrn]WTINGG; ester 9-C)
MICs against A. baumannii (range over strains) (A. baumannii): ≥ 32 µg/mL | MICs against K. pneumoniae (range over strains) (K. pneumoniae): 2 to 32 µg/mL
